{
  "source": "patent US5330983A",
  "about": "“14-O-p-chlorobenzoylaconine and analgesic/anti-inflammatory agent containing the same” (priority 1991, dated 1994)",
  "key": {"[1]": {"tested_on": "Male mice of the Std:ddY Strain", "assay": "Analgesic activity by the acetic acid-induced writhing method", "assay_type": "in vivo", "conditions": "acetic acid i.p., counted for 10 min, n = 10", "description": "Measurement of Analgesic Activity by the Acetic Acid-Induced Writhing Method\nMale mice of the Std:ddY Strain (20-25 g), which were fasted for one night before the initiation of the experiment, were used. Test compound hardly soluble in water was used in 3% suspension in gum arabic. Test compound taking a salt form was used in aqueous solution. 0.7% acetic acid in 0.9% physiological saline solution was injected i.p. (10 ml/kg) at 2 hours and 50 minutes after the test compound was administered p.o. After 10 minutes, the number of writhing movements was counted for a period of 10 minutes."}, "[2]": {"tested_on": "Male mice of the Std:ddY Strain", "assay": "Analgesic activity by the phenylquinone-induced writhing method", "assay_type": "in vivo", "conditions": "phenylquinone i.p., counted for 15 min, n = 8~10", "description": "Measurement of Analgesic Activity by the Phenylquinone-Induced Writhing Method\nMale mice of the Std:ddY Strain (20-25 g), which were fasted for one night before the initiation of the experiment, were used. Test compound hardly soluble in water was used in 3% suspension in gum arabic. Test compound taking a salt form was used in aqueous solution. 0.03% phenylquinone in 0.5% ethanol solution was injected i.p. (10 ml/kg) at 2 hours and 55 minutes after the compound was administered p.o. After 5 minutes, the number of writhings was counted for a period of 15 minutes."}, "[3]": {"tested_on": "Male mice of the Std:ddY Strain", "assay": "Analgesic activity by the tail-pressure method", "assay_type": "in vivo", "description": "Measurement of Analgesic Activity by the Tail-Pressure Method\nMale mice of the Std:ddY Strain (20-25 g), which were fasted for one night before the initiation of the experiment, were used. Test compound hardly soluble in water was used in 3% suspension in gum arabic. Test compound taking a salt form was used in aqueous solution. Experiments were made with a tail-pressure apparatus. Before the administration of test compounds, the pain threshold was measured twice at intervals of 30 minutes and those mice indicating a pain threshold of 30 to 80 mmHg were selected and used. The pain threshold of each mouse was measured at 1, 3 and 5 hours after test compounds were administered p.o. The results were described as a percentage of the pain threshold after the treatment with test compound relative to that before the treatment with test compound."}, "[4]": {"tested_on": "Male rats of the Wistar strain", "assay": "Antiinflammatory activity by the carrageenin-induced hind paw edema", "assay_type": "in vivo", "conditions": "100 mg/kg p.o.", "description": "Measurement of Antiinflammatory Activity by the Carrageenin-Induced Hind Paw Edema\nMale rats of the Wistar strain (5 weeks old, 120-130 g), which were fasted for one night before the initiation of the experiment, were used. One hour after the oral administration of test compound, λ-carrageenin (1%) was injected s.c. under the plantar surface of the right hind paw. Thereafter, at one hour intervals for 6 hours, the volume of the paw was measured using an apparatus therefor. The results were described as a swelling rate (%) calculated using the following equation:\n(R-L)×100/L=swelling rate (%)\nR: the volume of the right hind paw\nL: the volume of the left hind paw"}, "[5]": {"tested_on": "Male mice of the Std:ddY Strain", "assay": "Analgesic activity by the hot plate method", "assay_type": "in vivo", "conditions": "52° C. plate", "description": "Measurement of Analgesic Activity by the Hot Plate Method\nMale mice of the Std:ddY Strain (20-25 g), which were fasted for one night before the initiation of the experiment, were used. Test compound hardly soluble in water was used in 3% suspension in gum arabic. Test compound taking a salt form was used in aqueous solution. Mice were placed on a cyrindric hot plate (diameter: 22 cm, height: 11 cm) made of copper which was fixed in a water bath adjusted to 52° C. so that each animal's four paws came into contact with the plate and the time taken to show the nociceptive response (jumping and licking) as an index of pain was measured. Mice showing response times above 25 seconds were excluded from the experiment. The analgesic activity of the compound was measured at 1, 3 and 5 hours after test compound was administered p.o. The results are shown in Table 4."}, "[6]": {"assay": "in vivo", "design": "species or system mice (Std:ddY)", "conditions": "mouse, in vivo, po; mortality during 72 hours; Litchfield-Wilcoxon", "description": "EXPERIMENT EXAMPLE 6 (ACUTE TOXICITY)\nMale mice of the Std:ddY Strain (20-25 g), which were fasted for one night before the initiation of the experiment, were used. Test compound hardly soluble in water was used in 3% suspension in gum arabic. Test compound taking a salt form was used in aqueous solution."}},
  "data": [
    {"smiles": "CCN1CC2(COC)C(O)CC(OC)C34C5CC6(O)C(OC)C(O)C(C5C6OC(=O)c5ccccc5)C(C(OC)C23)C14", "note": "(stereo not shown) [8-deoxy-14-O-benzoylaconine, reference compound]", "values": [
      {"measurement": "The number of writhings, mean ± S.E.", "setting": "[1]; 3 mg/kg p.o.", "result": "24.1 ± 2.7"},
      {"measurement": "The number of writhings, mean ± S.E.", "setting": "[1]; 10 mg/kg p.o.", "result": "21.9 ± 2.6"},
      {"measurement": "The number of writhings, mean ± S.E.", "setting": "[1]; 30 mg/kg p.o.", "result": "17.8 ± 2.5"},
      {"measurement": "The number of writhings, mean ± S.E.", "setting": "[2]; 3 mg/kg p.o.", "result": "27.1 ± 2.7"},
      {"measurement": "The number of writhings, mean ± S.E.", "setting": "[2]; 10 mg/kg p.o.", "result": "25.0 ± 3.0"},
      {"measurement": "The number of writhings, mean ± S.E.", "setting": "[2]; 30 mg/kg p.o.", "result": "24.0 ± 2.3"},
      {"measurement": "Pain threshold (%, mean ± S.E.), posttreatment relative to pretreatment", "setting": "[3]; 100 mg/kg p.o., 1 h", "result": "101.8 ± 14.1", "unit": "%"},
      {"measurement": "Pain threshold (%, mean ± S.E.), posttreatment relative to pretreatment", "setting": "[3]; 100 mg/kg p.o., 3 h", "result": "100.2 ± 7.2", "unit": "%"},
      {"measurement": "Pain threshold (%, mean ± S.E.), posttreatment relative to pretreatment", "setting": "[3]; 100 mg/kg p.o., 5 h", "result": "105.6 ± 9.2", "unit": "%"},
      {"measurement": "Pain threshold (%, mean ± S.E.), posttreatment relative to pretreatment", "setting": "[3]; 300 mg/kg p.o., 1 h", "result": "115.6 ± 17.0", "unit": "%"},
      {"measurement": "Pain threshold (%, mean ± S.E.), posttreatment relative to pretreatment", "setting": "[3]; 300 mg/kg p.o., 3 h", "result": "116.2 ± 12.0", "unit": "%"},
      {"measurement": "Pain threshold (%, mean ± S.E.), posttreatment relative to pretreatment", "setting": "[3]; 300 mg/kg p.o., 5 h", "result": "110.2 ± 7.0", "unit": "%"},
      {"measurement": "Swelling rate (%, mean ± S.E.)", "setting": "[4]; 1 h after carrageenin", "result": "24.8 ± 9.2", "unit": "%"},
      {"measurement": "Swelling rate (%, mean ± S.E.)", "setting": "[4]; 2 h after carrageenin", "result": "36.3 ± 6.3", "unit": "%"},
      {"measurement": "Swelling rate (%, mean ± S.E.)", "setting": "[4]; 3 h after carrageenin", "result": "59.8 ± 6.3", "unit": "%"},
      {"measurement": "Swelling rate (%, mean ± S.E.)", "setting": "[4]; 4 h after carrageenin", "result": "63.5 ± 1.0", "unit": "%"},
      {"measurement": "Swelling rate (%, mean ± S.E.)", "setting": "[4]; 5 h after carrageenin", "result": "70.3 ± 3.9", "unit": "%"},
      {"measurement": "Swelling rate (%, mean ± S.E.)", "setting": "[4]; 6 h after carrageenin", "result": "72.2 ± 6.0", "unit": "%"},
      {"measurement": "Pain threshold (s, mean ± S.E.)", "setting": "[5]; 100 mg/kg p.o., 1 h", "result": "17.3 ± 1.7", "unit": "s"},
      {"measurement": "Pain threshold (s, mean ± S.E.)", "setting": "[5]; 100 mg/kg p.o., 3 h", "result": "17.9 ± 2.1", "unit": "s"},
      {"measurement": "Pain threshold (s, mean ± S.E.)", "setting": "[5]; 100 mg/kg p.o., 5 h", "result": "18.9 ± 1.7", "unit": "s"},
      {"measurement": "Pain threshold (s, mean ± S.E.)", "setting": "[5]; 300 mg/kg p.o., 1 h", "result": "18.6 ± 1.6", "unit": "s"},
      {"measurement": "Pain threshold (s, mean ± S.E.)", "setting": "[5]; 300 mg/kg p.o., 3 h", "result": "24.0 ± 2.3", "unit": "s"},
      {"measurement": "Pain threshold (s, mean ± S.E.)", "setting": "[5]; 300 mg/kg p.o., 5 h", "result": "19.6 ± 2.0", "unit": "s"},
      {"measurement": "LD50 at 72 h", "setting": "[6]", "result": "> 100", "unit": "mg/kg"}
    ]}
  ]
}
